Results from ChEMBL document CHEMBL1125524, “Adenosine A1 antagonists. 2. Structure-activity relationships on diuretic activities and protective effects against acute renal failure” (J Med Chem, 1992).

Experiments:
[1] = tested on: Rattus norvegicus; assay: Percent inhibition of serum creatinine by the compound given as ratio of Cr value in treated to vehicle treated ones after intraperitoneal administration of 10 mg/kg of compound to rats(vehicle 4.98+/-0.08); format: functional; settings: ip
[2] = tested on: Rattus norvegicus; assay: Oral diuretic activity was measured after oral administration of 25 mg/kg to rats(control volume is 0.89+/-0.06); format: functional, Urine
[3] = tested on: Rattus norvegicus; assay: Urea nitrogen concentration measured after intraperitoneal administration of 10 mg/kg of compound to rats(vehicle 150.7+/-3.4); format: functional
[4] = tested on: Rattus norvegicus; assay: Ratio of urinary excretion value (urinary volume) in treated rats to that in control rats, at a peroral dose of 25 mg/Kg; format: functional, Urine
[5] = biological target: Adenosine A2 receptor (Rattus norvegicus, UniProt P29276+P30543)
[6] = tested on: Rattus norvegicus; assay: Effect on urinary excretion potassium and sodium after oral administration of 25 mg/kg to rats(potassium and sodium excretion in control rat is […]+/-[…]); format: functional, Urine
[7] = tested on: Rattus norvegicus; assay: Ratio of sodium ion/potassium ion concentration in treated rats to that in control rats, at a peroral dose of 25 mg/Kg; format: functional
[8] = tested on: Rattus norvegicus; assay: Ratio of urinary excretion value (Na+ concentration) in treated rats to that in control rats, at a peroral dose of 25 mg/Kg; format: functional, Urine
[9] = tested on: Rattus norvegicus; assay: Serum creatinine concentration measured after intraperitoneal administration of 10 mg/kg of compound to rats(vehicle 4.98+/-0.08); format: functional
[10] = tested on: Rattus norvegicus; assay: Percent inhibition of Urea nitrogen by the compound given as ratio of UN value in treated to vehicle treated ones after intraperitoneal administration of 10 mg/kg of compound to rats(vehicle 150.7+/-3.4); format: functional; settings: ip
[11] = tested on: Rattus norvegicus; assay: Ratio of urinary excretion value (urinary volume) in treated rats to that in control rats, at a peroral dose of 6.25 mg/Kg; format: functional, Urine
[12] = tested on: Rattus norvegicus; assay: Ratio of urinary excretion value (Na+ concentration) in treated rats to that in control rats, at a peroral dose of 6.25 mg/Kg; format: functional, Urine
[13] = tested on: Rattus norvegicus; assay: Ratio of urinary excretion value (Na+ concentration) in treated rats to that in control rats, at a peroral dose of 1.6 mg/Kg; format: functional, Urine
[14] = tested on: Rattus norvegicus; assay: Ratio of urinary excretion value (urinary volume) in treated rats to that in control rats, at a peroral dose of 1.6 mg/Kg; format: functional, Urine
[15] = tested on: Rattus norvegicus; assay: Oral diuretic activity was measured after oral administration of 25 mg/kg to rats(control volume is 0.96+/-0.20); format: functional, Urine
[16] = organism: Rattus norvegicus; format: functional, Urine; settings: dose 1.6 mg/kg; route oral
[17] = tested on: Rattus norvegicus; assay: Percent inhibition of serum creatinine by the compound given as ratio of Cr value in treated to vehicle treated ones after intraperitoneal administration of 1 mg/kg of compound to rats(vehicle 3.06+/-0.68); format: functional; settings: ip
[18] = tested on: Rattus norvegicus; assay: Effect on urinary excretion potassium and sodium after oral administration of 25 mg/kg to rats(potassium and sodium excretion in control rat is 0.146+/-0.017); format: functional, Urine
[19] = tested on: Rattus norvegicus; assay: Urea nitrogen concentration measured after intraperitoneal administration of 1 mg/kg of compound to rats(vehicle 120.9+/-23.3); format: functional
[20] = tested on: Rattus norvegicus; assay: Percent inhibition of Urea nitrogen by the compound given as ratio of UN value in treated to vehicle treated ones after intraperitoneal administration of 1 mg/kg of compound to rats(vehicle 120.9+/-23.3); format: functional; settings: ip
[21] = tested on: Rattus norvegicus; assay: Ratio of sodium ion/potassium ion concentration in treated rats to that in control rats, at a peroral dose of 1.6 mg/Kg; format: functional
[22] = tested on: Rattus norvegicus; assay: Effect on urinary excretion potassium and sodium after oral administration of 1.6 mg/kg to rats(potassium and sodium excretion in control rat is 0.173+/-0.016); format: functional, Urine
[23] = tested on: Rattus norvegicus; assay: Serum creatinine concentration measured after intraperitoneal administration of 1 mg/kg of compound to rats(vehicle 3.06+/-0.68); format: functional
[24] = tested on: Rattus norvegicus; assay: Percent inhibition of serum creatinine by the compound given as ratio of Cr value in treated to vehicle treated ones after intraperitoneal administration of 10 mg/kg of compound to rats(vehicle 2.13+/-0.27); format: functional; settings: ip
[25] = tested on: Rattus norvegicus; assay: Serum creatinine concentration measured after intraperitoneal administration of 10 mg/kg of compound to rats(vehicle 2.13+/-0.27); format: functional
[26] = tested on: Rattus norvegicus; assay: Urea nitrogen concentration measured after intraperitoneal administration of 10 mg/kg of compound to rats(vehicle 129.1+/-14.5); format: functional
[27] = tested on: Rattus norvegicus; assay: Effect on urinary excretion potassium and sodium after oral administration of 1.6 mg/kg to rats(potassium and sodium excretion in control rat is 0.147+/-0.015); format: functional, Urine
[28] = tested on: Rattus norvegicus; assay: Oral diuretic activity was measured after oral administration of 1.6 mg/kg to rats(control volume is 0.96+/-0.09); format: functional, Urine
[29] = tested on: Rattus norvegicus; assay: Serum creatinine concentration measured after intraperitoneal administration of 10 mg/kg of compound to rats(vehicle 3.93+/-0.45); format: functional
[30] = tested on: Rattus norvegicus; assay: Serum creatinine concentration measured after intraperitoneal administration of 1 mg/kg of compound to rats(vehicle 3.62+/-0.52); format: functional
[31] = tested on: Rattus norvegicus; assay: Urea nitrogen concentration measured after intraperitoneal administration of 1 mg/kg of compound to rats(vehicle 105.2+/-14.9); format: functional
[32] = biological target: T1, Adenosine receptor A1 (Cavia porcellus, UniProt P47745)
T1 sequence (P47745 whole entry): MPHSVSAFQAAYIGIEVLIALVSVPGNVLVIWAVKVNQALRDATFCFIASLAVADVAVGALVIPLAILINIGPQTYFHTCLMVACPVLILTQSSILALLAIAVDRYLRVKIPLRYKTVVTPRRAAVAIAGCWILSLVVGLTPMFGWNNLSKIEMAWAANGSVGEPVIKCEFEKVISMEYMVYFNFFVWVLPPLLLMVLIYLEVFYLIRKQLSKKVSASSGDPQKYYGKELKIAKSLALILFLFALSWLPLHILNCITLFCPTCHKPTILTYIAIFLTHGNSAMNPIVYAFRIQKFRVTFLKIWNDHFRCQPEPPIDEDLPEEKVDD
Description: Binding affinity against adenosine A1 receptor in guinea pig forebrain membranes using N6-[3H]cyclohexyladenosine as radioligand

Structure (SMILES): CCCn1c(=O)c2c(nc(C(C3CC3)C3CC3)n2CC)n(CCC)c1=O
- inhibition in vivo at 10 mg/kg [1]: 10%
- Urine volume [2]: 2.15 ml 6hr-1 100g-1
- UN [3]: 142.7 mg/dL
- T/C [4]: 2.42
- Ki [5]: 14 µM
- Na [6]: 0.348 m equiv 6hr-1 100g-1
- Na+/K+ [7]: 1.51
- T/C [8]: 2.14
- Cr [9]: 4.5 mg/dL
- inhibition in vivo at 10 mg/kg [10]: 5%
- T/C [11]: 1.19
- T/C [12]: 1.24

Structure (SMILES): CCCn1c(=O)c2nc(C3C(C)(C)CCC3(C)C)[nH]c2n(CCC)c1=O
- T/C [13]: 1.23
- T/C [14]: 1.42
- Urine volume [15]: 1.34 ml 6hr-1 100g-1
- Urine volume [16]: 1.5 ml 6hr-1 100g-1
- inhibition in vivo at 1 mg/kg [17]: 1%
- Na [18]: 0.172 m equiv 6hr-1 100g-1
- UN [19]: 113.4 mg/dL
- inhibition in vivo at 1 mg/kg [20]: 6%
- T/C [4]: 1.4
- Na+/K+ [21]: 1.12
- Na [22]: 0.213 m equiv 6hr-1 100g-1
- Ki [5]: > 100 µM
- Cr [23]: 3.03 mg/dL
- Na+/K+ [7]: 1.21
- inhibition in vivo at 10 mg/kg [24]: 33%
- T/C [8]: 1.18
- Cr [25]: 1.43 mg/dL

Structure (SMILES): Cn1c(=O)c2nc(C(C3CC3)C3CC3)[nH]c2n(C)c1=O
- T/C [13]: 1.24
- T/C [14]: 0.91
- UN [26]: 57.2 mg/dL
- Na [27]: 0.183 m equiv 6hr-1 100g-1
- Na+/K+ [21]: 1.18
- Ki [5]: 2.7 µM
- Urine volume [28]: 0.87 ml 6hr-1 100g-1
- Cr [29]: 1.78 mg/dL
- Cr [30]: 4.1 mg/dL
- UN [31]: 121.4 mg/dL

Structure (SMILES): CCCn1c(=O)c2[nH]c(CC3CCCCC3)nc2n(CCC)c1=O
- Ki [32]: 11 nM
